Reference: ChEMBL document CHEMBL1155893 (J Med Chem, 2008)

Key:
Assay type in all cases: functional, organism-based
Plasmodium falciparum [1] = experiment: Antimalarial activity against multidrug-resistant Plasmodium falciparum TM91C235
Plasmodium falciparum [2] = experiment: Antimalarial activity against chloroquine-resistant Plasmodium falciparum W2
Plasmodium falciparum [3] = experiment: Antimalarial activity against chloroquine,mefloquine-sensitive Plasmodium falciparum D6

Row | SMILES | IC50 (Plasmodium falciparum [1]) | IC90 (Plasmodium falciparum [1]) | IC50 (Plasmodium falciparum [2]) | IC90 (Plasmodium falciparum [2]) | IC50 (Plasmodium falciparum [3]) | IC90 (Plasmodium falciparum [3])
1 | Clc1ccc2c(NCCCN(CCC34CC5CC(CC(C5)C3)C4)CCC34CC5CC(CC(C5)C3)C4)ccnc2c1 | 109 nM | 171 nM | 83.2 nM | 132 nM | 52.2 nM | 78.3 nM
2 | COC(=O)CC[C@@H](C)[C@H]1CC[C@H]2[C@@H]3[C@H](OC(C)=O)C[C@@H]4C[C@H](OCCNc5ccnc6cc(Cl)ccc56)CC[C@]4(C)[C@H]3C[C@H](OC(C)=O)[C@]12C | 50.5 nM | 72.8 nM | 111 nM | 147 nM | 33 nM | 99.3 nM
3 | Clc1ccc2c(NCCNCC34CC5CC(CC(C5)C3)C4)ccnc2c1 | 8.73 nM | 14.9 nM | 8.4 nM | 15.2 nM | 4.26 nM | 8.23 nM
4 | O=C(CC12CC3CC(CC(C3)C1)C2)NCCNc1ccnc2cc(Cl)ccc12 | 238 nM | 383 nM | 254 nM | 397 nM | 78.5 nM | 157 nM
5 | O=C(NCCCNc1ccnc2cc(Cl)ccc12)C12CC3CC(CC(C3)C1)C2 | 525 nM | 787 nM | 878 nM | 1360 nM | 214 nM | 370 nM
6 | COC(=O)CC[C@@H](C)[C@H]1CC[C@H]2[C@@H]3[C@H](OC(C)=O)C[C@@H]4C[C@H](OCCNCCNc5ccnc6cc(Cl)ccc56)CC[C@]4(C)[C@H]3C[C@H](OC(C)=O)[C@]12C | 32.2 nM | 76 nM | 17.8 nM | 24.6 nM | 14.1 nM | 22.8 nM
7 | Clc1ccc2c(NCCCCCNCC34CC5CC(CC(C5)C3)C4)ccnc2c1 | 75.3 nM | 161 nM | 131 nM | 168 nM | 15.2 nM | 18.9 nM
8 | CC(=O)O[C@@H]1CC[C@@]2(C)[C@@H](C1)C[C@@H](OC(C)=O)[C@@H]1[C@@H]2C[C@H](OC(C)=O)[C@]2(C)[C@@H]([C@H](C)CCC(=O)Nc3ccnc4cc(Cl)ccc34)CC[C@@H]12 | 3510 nM | 6060 nM | 7190 nM | – | 3020 nM | 6920 nM
9 | CC(=O)O[C@@H]1CC[C@@]2(C)[C@@H](C1)C[C@@H](OC(C)=O)[C@@H]1[C@@H]2C[C@H](OC(C)=O)[C@]2(C)[C@@H]([C@H](C)CCC(=O)NCCNc3ccnc4cc(Cl)ccc34)CC[C@@H]12 | 28.8 nM | 34.8 nM | 48.9 nM | 70.6 nM | 19 nM | 21.1 nM
10 | Clc1ccc2c(NCCCNCCC34CC5CC(CC(C5)C3)C4)ccnc2c1 | 42.1 nM | 171 nM | 33.7 nM | 56.1 nM | 11.4 nM | 23.3 nM
11 | O[C@@H](c1cc(C(F)(F)F)nc2c(C(F)(F)F)cccc12)[C@H]1CCCCN1 [MEFLOQUINE] | – | 106 nM | – | 14.7 nM | 11.2 nM | 28.1 nM
12 | O=C(CC12CC3CC(CC(C3)C1)C2)NCCCNc1ccnc2cc(Cl)ccc12 | 201 nM | 464 nM | 337 nM | 853 nM | 106 nM | 294 nM
13 | COC(=O)CC[C@@H](C)[C@H]1CC[C@H]2[C@@H]3[C@H](OC(C)=O)C[C@@H]4C[C@H](NCCNc5ccnc6cc(Cl)ccc56)CC[C@]4(C)[C@H]3C[C@H](OC(C)=O)[C@]12C | 12.8 nM | 24.4 nM | 5.74 nM | 11.2 nM | 9.47 nM | 12.3 nM
14 | Clc1ccc2c(NCCCNCC34CC5CC(CC(C5)C3)C4)ccnc2c1 | 7.39 nM | 20.2 nM | 12.1 nM | 20.1 nM | 3.83 nM | 6.41 nM
15 | CCCNC(=O)CC[C@@H](C)[C@H]1CC[C@H]2[C@@H]3[C@H](OC(C)=O)C[C@@H]4C[C@H](Nc5ccnc6cc(Cl)ccc56)CC[C@]4(C)[C@H]3C[C@H](OC(C)=O)[C@]12C | 99.5 nM | 367 nM | 209 nM | 1850 nM | 68.2 nM | 98.2 nM
16 | O=C(NCCCCCNc1ccnc2cc(Cl)ccc12)C12CC3CC(CC(C3)C1)C2 | 765 nM | 984 nM | 884 nM | 1410 nM | 511 nM | 632 nM
17 | C[C@@H]1CC[C@H]2[C@@H](C)C(=O)O[C@@H]3O[C@@]4(C)CC[C@@H]1[C@]32OO4 [ARTEMISININ] | 13 nM | 17.4 nM | 6.7 nM | 11.5 nM | 9 nM | 12.8 nM
18 | O=C(NCCNc1ccnc2cc(Cl)ccc12)C12CC3CC(CC(C3)C1)C2 | 439 nM | 685 nM | 485 nM | 724 nM | 202 nM | 465 nM
19 | O=C(CC12CC3CC(CC(C3)C1)C2)NCCCCCNc1ccnc2cc(Cl)ccc12 | 602 nM | 777 nM | 518 nM | 660 nM | 267 nM | 347 nM
20 | CCN(CC)CCCC(C)Nc1ccnc2cc(Cl)ccc12 (stereo not given) [CHLOROQUINE] | – | – | – | 530 nM | – | 16.4 nM
21 | CC(=O)O[C@@H]1CC[C@@]2(C)[C@@H](C1)C[C@@H](OC(C)=O)[C@@H]1[C@@H]2C[C@H](OC(C)=O)[C@]2(C)[C@@H]([C@H](C)CCCNCCNc3ccnc4cc(Cl)ccc34)CC[C@@H]12 | 27.7 nM | 77.9 nM | 11.4 nM | 32.5 nM | 16.9 nM | 34.2 nM
22 | Clc1ccc2c(NCCCCCNCCC34CC5CC(CC(C5)C3)C4)ccnc2c1 | 67.2 nM | 168 nM | 160 nM | 311 nM | 21.9 nM | 24.8 nM
23 | CC(=O)O[C@@H]1CC[C@@]2(C)[C@@H](C1)C[C@@H](OC(C)=O)[C@@H]1[C@@H]2C[C@H](OC(C)=O)[C@]2(C)[C@@H]([C@H](C)CCCNc3ccnc4cc(Cl)ccc34)CC[C@@H]12 | 30.1 nM | 68.6 nM | 140 nM | 1180 nM | 15.8 nM | 70.5 nM
24 | COC(=O)CC[C@@H](C)[C@H]1CC[C@H]2[C@@H]3[C@H](OC(C)=O)C[C@@H]4C[C@@H](NCCNc5ccnc6cc(Cl)ccc56)CC[C@]4(C)[C@H]3C[C@H](OC(C)=O)[C@]12C | 11 nM | 25 nM | 3.38 nM | 6.74 nM | 6.17 nM | 10.4 nM
25 | COC(=O)CC[C@@H](C)[C@H]1CC[C@H]2[C@@H]3[C@H](OC(C)=O)C[C@@H]4C[C@H](Nc5ccnc6cc(Cl)ccc56)CC[C@]4(C)[C@H]3C[C@H](OC(C)=O)[C@]12C | 30.1 nM | 68.6 nM | 108 nM | 563 nM | 10.7 nM | 20.7 nM
26 | Clc1ccc2c(NCCN(CCC34CC5CC(CC(C5)C3)C4)CCC34CC5CC(CC(C5)C3)C4)ccnc2c1 | 101 nM | 225 nM | 78.2 nM | 113 nM | 51.9 nM | 70 nM
27 | Clc1ccc2c(NCCNCCC34CC5CC(CC(C5)C3)C4)ccnc2c1 | 17.8 nM | 24.4 nM | 15.7 nM | 31 nM | 8.59 nM | 13.7 nM
